In patent US9573970B2, “4-{4-[(1E)-4-(2,9-diazaspiro[5.5]undec-2-yl)but-1-en-1-yl]-2-methylbenzyl}-5-(propan-2-yl)-1H-pyrazol-3-yl beta-D glucopyranoside acetate” (Eli Lilly and Company, priority 2013, dated 2017):

Assays:
human SGLT1 = molecular target: T1, human SGLT1 (Homo sapiens, UniProt P13866); experiment: Sodium-dependent 14C-AMG uptake in CHO-K1 cells expressing human SGLT1; format: cell-based
T1 sequence (P13866 1-664): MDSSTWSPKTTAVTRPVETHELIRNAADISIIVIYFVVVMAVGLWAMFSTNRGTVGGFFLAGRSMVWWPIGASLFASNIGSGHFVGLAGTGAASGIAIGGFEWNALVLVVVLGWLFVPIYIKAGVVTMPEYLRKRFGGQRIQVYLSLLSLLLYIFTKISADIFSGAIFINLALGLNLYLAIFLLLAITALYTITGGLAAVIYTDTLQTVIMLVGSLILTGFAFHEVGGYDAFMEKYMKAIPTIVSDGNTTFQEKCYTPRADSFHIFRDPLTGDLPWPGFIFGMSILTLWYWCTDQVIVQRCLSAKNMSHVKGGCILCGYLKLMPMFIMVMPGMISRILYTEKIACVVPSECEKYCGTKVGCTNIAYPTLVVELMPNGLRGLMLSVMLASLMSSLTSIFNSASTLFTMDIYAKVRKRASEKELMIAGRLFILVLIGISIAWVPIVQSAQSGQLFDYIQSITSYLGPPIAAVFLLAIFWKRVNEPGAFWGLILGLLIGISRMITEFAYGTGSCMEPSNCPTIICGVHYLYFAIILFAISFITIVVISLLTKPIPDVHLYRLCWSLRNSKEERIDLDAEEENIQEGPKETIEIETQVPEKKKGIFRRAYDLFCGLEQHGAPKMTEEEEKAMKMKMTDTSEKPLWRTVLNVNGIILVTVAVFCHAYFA
Description: (§1) The cDNA encoding human SGLT1 (slc5a1, NM_000343), human SGLT2 (slc5a2, NM_003041) and mouse SGLT1 (slc5a1, NM_019810.4) are purchased from Openbiosystems, Invitrogen and Openbiosystems, respectively. The cDNA is cloned into pcDNA3.1+ for mammalian expression and is stably transfected into Chinese hamster ovary (CHO)-K1 cells using standard mammalian transfection procedures. An SGLT-expressing sub-clone of each over-expressing cell line is selected based on resistance to neomycin (Geneticin, Invitrogen) and activity in the ^14C-α-methyl-D-glucopyranoside (^14C-AMG) uptake assay (see below). Stable SGLT-expressing cells are maintained using standard cell culture techniques.
(§2) The SGLT activity is measured as sodium-dependent ^14C-AMG uptake in the above cell lines described as follows. One hundred μL of culture medium containing 30,000 cells are seeded to each well of a 96-well BioCoat poly-D-lysine plate (Becton Dickson) and cultured at 37° C. overnight. The culture medium is aspirated and cells are washed twice with 200 μL of Reaction Buffer (140 mM NaCl, 2 mM KCl, 1 mM CaCl2, MgCl2, and 14 mM N-2-hydroethylpiperrazine-N′-2-ethanesulfonic acid (Hepes), pH 7.5). The excess buffer is tapped out onto paper towels. Thirty-five μL of Reaction Buffer are added to each well. […] After mixing, the scintillation signal in the plate is counted in a MicroBeta (PerkinElmer). […]

human SGLT2 = molecular target: T2, human SGLT2 (Homo sapiens, UniProt P31639); experiment: Sodium-dependent 14C-AMG uptake in CHO-K1 cells expressing human SGLT2; format: cell-based; conditions: n = 10
T2 sequence (P31639 1-672): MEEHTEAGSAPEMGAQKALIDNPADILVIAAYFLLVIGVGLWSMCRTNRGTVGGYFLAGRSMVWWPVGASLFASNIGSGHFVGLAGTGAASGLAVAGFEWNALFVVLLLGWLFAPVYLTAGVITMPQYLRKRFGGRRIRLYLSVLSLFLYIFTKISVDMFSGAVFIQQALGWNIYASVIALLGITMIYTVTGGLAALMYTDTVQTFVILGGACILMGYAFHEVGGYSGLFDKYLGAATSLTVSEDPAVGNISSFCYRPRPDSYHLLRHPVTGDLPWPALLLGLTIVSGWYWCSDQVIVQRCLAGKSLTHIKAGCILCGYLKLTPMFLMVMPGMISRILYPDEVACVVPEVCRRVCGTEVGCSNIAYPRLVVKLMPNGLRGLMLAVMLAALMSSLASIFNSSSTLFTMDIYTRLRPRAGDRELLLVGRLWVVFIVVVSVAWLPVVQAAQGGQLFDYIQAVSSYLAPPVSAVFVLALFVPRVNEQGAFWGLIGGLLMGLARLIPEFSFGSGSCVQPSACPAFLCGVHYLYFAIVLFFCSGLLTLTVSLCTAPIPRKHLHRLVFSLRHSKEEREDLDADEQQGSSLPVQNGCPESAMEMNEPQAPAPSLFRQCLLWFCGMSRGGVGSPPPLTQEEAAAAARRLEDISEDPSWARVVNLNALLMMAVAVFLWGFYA
Description: as §1, §2

Which results are given for `Cc1cc(/C=C/CCN2CCCC3(CCNCC3)C2)ccc1Cc1c(O[C@@H]2O[C@H](CO)[C@@H](O)[C@H](O)[C@H]2O)n[nH]c1C(C)C` [Example 1 (free base), 4-{4-[(1E)-4-(2,9-diazaspiro[5.5]undec-2-yl)but-1-en-1-yl]-2-methylbenzyl}-5-(propan-2-yl)-1H-pyrazol-3-yl beta-D-glucopyranoside]?
IC50 (human SGLT1; 14C-AMG uptake, CHO-K1 cells, n = 10): 0.026 ± 0.02 µM; Potency at SGLT1 relative to human SGLT2 (human SGLT1; in vitro, from Table 2): more potent at human and mouse SGLT1 than at human SGLT2; IC50 (human SGLT2): 6.1 ± 1.2 µM
